Data from PubChem BioAssay AID1919013 (Molecular Pharmacology Branch, DTP, NCI, 2023).
Blank lines part the entries; values can stand above or below the compound they belong to.

System: LG0703-F498-PDC complex spheroid growth
Test: Anticancer human tumor LG0703-F498-PDC patient-derived lung adenocarcinoma cell line growth inhibition [AhR]
Conditions: for IC50: curve of first compound; for viability, T/C: stronger effect = lower value
How it was run: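 Spheroids combined tumor cells with HUVEC endothelial cells and human MSCs as stroma. AhR antagonists were paired with standard or investigational drugs, each dosed in half-log steps down from near clinical Cmax, or from 10 microM where Cmax was unknown.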

[1] = second compound 0.1 µM, first compound 0.0316 µM
[2] = second compound 0.1 µM, first compound 0.1 µM
[3] = second compound 0.1 µM, first compound 0.316 µM
[4] = second compound 0.1 µM, first compound 1 µM
[5] = second compound 0.1 µM, first compound 3.16 µM
[6] = second compound 0.1 µM, first compound 10 µM
[7] = second compound 0.316 µM, first compound 0.0316 µM
[8] = second compound 0.316 µM, first compound 0.1 µM
[9] = second compound 0.316 µM, first compound 0.316 µM
[10] = second compound 0.316 µM, first compound 1 µM
[11] = second compound 0.316 µM, first compound 3.16 µM
[12] = second compound 0.316 µM, first compound 10 µM
[13] = second compound 1 µM, first compound 0.0316 µM
[14] = second compound 1 µM, first compound 0.1 µM
[15] = second compound 1 µM, first compound 0.316 µM
[16] = second compound 1 µM, first compound 1 µM
[17] = second compound 1 µM, first compound 3.16 µM
[18] = second compound 1 µM, first compound 10 µM
[19] = second compound 3.16 µM, first compound 0.0316 µM
[20] = second compound 3.16 µM, first compound 0.1 µM
[21] = second compound 3.16 µM, first compound 0.316 µM
[22] = second compound 3.16 µM, first compound 1 µM
[23] = second compound 3.16 µM, first compound 3.16 µM
[24] = second compound 3.16 µM, first compound 10 µM
[25] = second compound 10 µM, first compound 0.0316 µM
[26] = second compound 10 µM, first compound 0.1 µM
[27] = second compound 10 µM, first compound 0.316 µM
[28] = second compound 10 µM, first compound 1 µM
[29] = second compound 10 µM, first compound 3.16 µM
[30] = second compound 10 µM, first compound 10 µM
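Further: luminescence taken as a proxy for viable cell amount.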
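Wherever viability, T/C is given: percent of DMSO vehicle control where 100% means growth equal to vehicle.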

- IC50 (second compound 0.1 µM): > 10000 nM
- IC50 (second compound 0.316 µM): > 10000 nM
- IC50 (second compound 1 µM): > 10000 nM
- IC50 (second compound 3.16 µM): < 31.6 nM
- IC50 (second compound 10 µM): < 31.6 nM
Compound: CC(C)c1c(-c2ccccc2)nc2c(C#N)c[nH]n2c1=O + Cc1cncc(-c2nc(NCCc3c[nH]c4ccccc34)c3ncn(C(C)C)c3n2)c1
- viability, T/C [1]: 108%
- viability, T/C [2]: 101%
- viability, T/C [3]: 87.2%
- viability, T/C [4]: 101%
- viability, T/C [5]: 89.1%
- viability, T/C [6]: 81.6%
- viability, T/C [7]: 97.3%
- viability, T/C [8]: 93.4%
- viability, T/C [9]: 96.5%
- viability, T/C [10]: 95.8%
- viability, T/C [11]: 103%
- viability, T/C [12]: 79.5%
- viability, T/C [13]: 106%
- viability, T/C [14]: 119%
- viability, T/C [15]: 101%
- viability, T/C [16]: 91.6%
- viability, T/C [17]: 91.9%
- viability, T/C [18]: 89.6%
- viability, T/C [19]: 39.1%
- viability, T/C [20]: 40%
- viability, T/C [21]: 36.9%
- viability, T/C [22]: 31.7%
- viability, T/C [23]: 29.9%
- viability, T/C [24]: 33%
- viability, T/C [25]: 1.38%
- viability, T/C [26]: 1.01%
- viability, T/C [27]: 1.64%
- viability, T/C [28]: 2.22%
- viability, T/C [29]: 0.57%
- viability, T/C [30]: 1.89%

- IC50 (second compound 0.1 µM): > 10000 nM
- IC50 (second compound 0.316 µM): > 10000 nM
- IC50 (second compound 1 µM): 9330 nM
- IC50 (second compound 3.16 µM): < 31.6 nM
- IC50 (second compound 10 µM): < 31.6 nM
Compound: CC1COCCN1c1cc(C2(S(C)(=N)=O)CC2)nc(-c2ccnc3[nH]ccc23)n1 (stereo not given) + Cc1cncc(-c2nc(NCCc3c[nH]c4ccccc34)c3ncn(C(C)C)c3n2)c1
- viability, T/C [1]: 107%
- viability, T/C [2]: 104%
- viability, T/C [3]: 92.5%
- viability, T/C [4]: 96.4%
- viability, T/C [5]: 97.2%
- viability, T/C [6]: 59.2%
- viability, T/C [7]: 92.4%
- viability, T/C [8]: 110%
- viability, T/C [9]: 105%
- viability, T/C [10]: 110%
- viability, T/C [11]: 89.7%
- viability, T/C [12]: 54.5%
- viability, T/C [13]: 107%
- viability, T/C [14]: 91.2%
- viability, T/C [15]: 101%
- viability, T/C [16]: 94.8%
- viability, T/C [17]: 89.9%
- viability, T/C [18]: 46.9%
- viability, T/C [19]: 18%
- viability, T/C [20]: 18.5%
- viability, T/C [21]: 25%
- viability, T/C [22]: 17.1%
- viability, T/C [23]: 13.5%
- viability, T/C [24]: 8.17%
- viability, T/C [25]: 1.76%
- viability, T/C [26]: 1.78%
- viability, T/C [27]: 1.04%
- viability, T/C [28]: 1.58%
- viability, T/C [29]: 0.93%
- viability, T/C [30]: 1.14%

- IC50 (second compound 0.1 µM): 5420 nM
- IC50 (second compound 0.316 µM): 4810 nM
- IC50 (second compound 1 µM): 4590 nM
- IC50 (second compound 3.16 µM): < 31.6 nM
- IC50 (second compound 10 µM): < 31.6 nM
Compound: COc1ccc([C@@H](O)c2cc(-c3ncnc4cc(N5CCOCC5)ccc34)c(F)cc2Cl)nn1 + Cc1cncc(-c2nc(NCCc3c[nH]c4ccccc34)c3ncn(C(C)C)c3n2)c1
- viability, T/C [1]: 87.8%
- viability, T/C [2]: 107%
- viability, T/C [3]: 98.1%
- viability, T/C [4]: 82.2%
- viability, T/C [5]: 65.3%
- viability, T/C [6]: 34%
- viability, T/C [7]: 105%
- viability, T/C [8]: 97%
- viability, T/C [9]: 97.8%
- viability, T/C [10]: 82%
- viability, T/C [11]: 63.5%
- viability, T/C [12]: 27.5%
- viability, T/C [13]: 95.9%
- viability, T/C [14]: 104%
- viability, T/C [15]: 103%
- viability, T/C [16]: 92.4%
- viability, T/C [17]: 60.4%
- viability, T/C [18]: 28.7%
- viability, T/C [19]: 36.7%
- viability, T/C [20]: 42.4%
- viability, T/C [21]: 34%
- viability, T/C [22]: 27.4%
- viability, T/C [23]: 17.8%
- viability, T/C [24]: 13%
- viability, T/C [25]: 1.26%
- viability, T/C [26]: 1%
- viability, T/C [27]: 1.42%
- viability, T/C [28]: 1.17%
- viability, T/C [29]: 0.52%
- viability, T/C [30]: 1.67%

Further lines, the compound ahead of its results:

Compound: CC1COCCN1c1cc(-c2ccnn2C)c2ccnc(-c3ccn[nH]3)c2n1 (stereo not given) + Cc1cncc(-c2nc(NCCc3c[nH]c4ccccc34)c3ncn(C(C)C)c3n2)c1
- IC50 (second compound 0.1 µM): 621 nM
- IC50 (second compound 0.316 µM): 279 nM
- IC50 (second compound 1 µM): 468 nM
- IC50 (second compound 3.16 µM): < 3.16 nM
- IC50 (second compound 10 µM): < 3.16 nM
- viability, T/C (second compound 0.1 µM, first compound 0.00316 µM): 104%
- viability, T/C (second compound 0.1 µM, first compound 0.01 µM): 103%
- viability, T/C [1]: 112%
- viability, T/C [2]: 82.3%
- viability, T/C [3]: 64.6%
- viability, T/C [4]: 40.8%
- viability, T/C (second compound 0.316 µM, first compound 0.00316 µM): 111%
- viability, T/C (second compound 0.316 µM, first compound 0.01 µM): 120%
- viability, T/C [7]: 102%
- viability, T/C [8]: 76.4%
- viability, T/C [9]: 47.5%
- viability, T/C [10]: 34.3%
- viability, T/C (second compound 1 µM, first compound 0.00316 µM): 119%
- viability, T/C (second compound 1 µM, first compound 0.01 µM): 112%
- viability, T/C [13]: 111%
- viability, T/C [14]: 83.2%
- viability, T/C [15]: 58.9%
- viability, T/C [16]: 35.5%
- viability, T/C (second compound 3.16 µM, first compound 0.00316 µM): 38%
- viability, T/C (second compound 3.16 µM, first compound 0.01 µM): 34.6%
- viability, T/C [19]: 33.2%
- viability, T/C [20]: 27.5%
- viability, T/C [21]: 18.7%
- viability, T/C [22]: 15.7%
- viability, T/C (second compound 10 µM, first compound 0.00316 µM): 1.11%
- viability, T/C (second compound 10 µM, first compound 0.01 µM): 1.21%
- viability, T/C [25]: 1.42%
- viability, T/C [26]: 1.71%
- viability, T/C [27]: 0.8%
- viability, T/C [28]: 2.39%

Compound: O=C(C=Cn1cnc(-c2cc(C(F)(F)F)cc(C(F)(F)F)c2)n1)NNc1cnccn1 + Cc1cncc(-c2nc(NCCc3c[nH]c4ccccc34)c3ncn(C(C)C)c3n2)c1
- IC50 (second compound 0.1 µM): 116 nM
- IC50 (second compound 0.316 µM): 115 nM
- IC50 (second compound 1 µM): 99.1 nM
- IC50 (second compound 3.16 µM): 24.9 nM
- IC50 (second compound 10 µM): < 9.49 nM
- viability, T/C (second compound 0.1 µM, first compound 0.00949 µM): 87.9%
- viability, T/C (second compound 0.1 µM, first compound 0.03 µM): 70.4%
- viability, T/C (second compound 0.1 µM, first compound 0.0949 µM): 49.8%
- viability, T/C (second compound 0.1 µM, first compound 0.3 µM): 40%
- viability, T/C (second compound 0.1 µM, first compound 0.949 µM): 37.4%
- viability, T/C (second compound 0.1 µM, first compound 3 µM): 27.9%
- viability, T/C (second compound 0.316 µM, first compound 0.00949 µM): 82.4%
- viability, T/C (second compound 0.316 µM, first compound 0.03 µM): 69.7%
- viability, T/C (second compound 0.316 µM, first compound 0.0949 µM): 51.8%
- viability, T/C (second compound 0.316 µM, first compound 0.3 µM): 36.2%
- viability, T/C (second compound 0.316 µM, first compound 0.949 µM): 37.4%
- viability, T/C (second compound 0.316 µM, first compound 3 µM): 25%
- viability, T/C (second compound 1 µM, first compound 0.00949 µM): 82.6%
- viability, T/C (second compound 1 µM, first compound 0.03 µM): 70.9%
- viability, T/C (second compound 1 µM, first compound 0.0949 µM): 48.8%
- viability, T/C (second compound 1 µM, first compound 0.3 µM): 38.2%
- viability, T/C (second compound 1 µM, first compound 0.949 µM): 29.2%
- viability, T/C (second compound 1 µM, first compound 3 µM): 27.9%
- viability, T/C (second compound 3.16 µM, first compound 0.00949 µM): 62.3%
- viability, T/C (second compound 3.16 µM, first compound 0.03 µM): 47.4%
- viability, T/C (second compound 3.16 µM, first compound 0.0949 µM): 34.3%
- viability, T/C (second compound 3.16 µM, first compound 0.3 µM): 26%
- viability, T/C (second compound 3.16 µM, first compound 0.949 µM): 26.3%
- viability, T/C (second compound 3.16 µM, first compound 3 µM): 24.9%
- viability, T/C (second compound 10 µM, first compound 0.00949 µM): 1.57%
- viability, T/C (second compound 10 µM, first compound 0.03 µM): 1.26%
- viability, T/C (second compound 10 µM, first compound 0.0949 µM): 1.76%
- viability, T/C (second compound 10 µM, first compound 0.3 µM): 2.84%
- viability, T/C (second compound 10 µM, first compound 0.949 µM): 2.94%
- viability, T/C (second compound 10 µM, first compound 3 µM): 4.72%
